Data from patent EP2377520A1, “Pharmaceutical compound of prasugrel” (Ratiopharm GmbH, priority 2010, dated 2011).
In brackets after ≈: the same amount, converted by molar mass.

Columns and labels:
pH-dependent degradation = type: physicochemical; conditions: pH-Werte < 3; nach bereits 2 Stunden; read-out: Abbau
Text: Darüber hinaus weist Prasugrel auch einen stark pH-abhängigen Abbau auf. Bei pH-Werten von < 3 ist ein Abbau von mehr als 1 % nach bereits 2 Stunden zu beobachten. Dies schränkt die möglichen Hilfsstoffe bei der Herstellung pharmazeutischer Formulierungen ein.

Solubility in water = type: physicochemical; conditions: in Wasser, freie Base, read-out: Löslichkeit
Method: Prasugrel wird als Plättchenaggregationshemmer oral verabreicht. Problematisch hierbei ist, dass es sich bei Prasugrel um einen schwer löslichen Wirkstoff handelt. Die freie Base des Wirkstoffs weist eine Löslichkeit von 57 µg/ml in Wasser auf, aber auch die Salze zeigen nur eine begrenzte Löslichkeit.

Compound: CC(=O)Oc1cc2c(s1)CCN(C(C(=O)C1CC1)c1ccccc1F)C2 (centres unmarked) [Prasugrel, 2-Acetoxy-5-(a-cyclopropylcarbonyl-2-fluorbenzyl)-4,5,6,7-tetrahydrothieno[3,2-c]pyridin]
- degraded at 2 h (pH-dependent degradation): > 1%
- solubility (Solubility in water): 57 µg/mL (≈ 153 µM)
